In patent US9532990B2 (Zhejiang DTRM Biopharma Co. Ltd., priority 2014, dated 2017):
pIC50: −log10 of the molar value.

The molecules below were run against BTK wild type (Homo sapiens (Human), UniProt Q06187) (assay: Inhibition assay of BTK kinase activity (HTRF)). Settings: all compounds with IC50 of less 10 nM; read-out: IC50 (BTK).
Chain of BTK wild type (Q06187 whole entry): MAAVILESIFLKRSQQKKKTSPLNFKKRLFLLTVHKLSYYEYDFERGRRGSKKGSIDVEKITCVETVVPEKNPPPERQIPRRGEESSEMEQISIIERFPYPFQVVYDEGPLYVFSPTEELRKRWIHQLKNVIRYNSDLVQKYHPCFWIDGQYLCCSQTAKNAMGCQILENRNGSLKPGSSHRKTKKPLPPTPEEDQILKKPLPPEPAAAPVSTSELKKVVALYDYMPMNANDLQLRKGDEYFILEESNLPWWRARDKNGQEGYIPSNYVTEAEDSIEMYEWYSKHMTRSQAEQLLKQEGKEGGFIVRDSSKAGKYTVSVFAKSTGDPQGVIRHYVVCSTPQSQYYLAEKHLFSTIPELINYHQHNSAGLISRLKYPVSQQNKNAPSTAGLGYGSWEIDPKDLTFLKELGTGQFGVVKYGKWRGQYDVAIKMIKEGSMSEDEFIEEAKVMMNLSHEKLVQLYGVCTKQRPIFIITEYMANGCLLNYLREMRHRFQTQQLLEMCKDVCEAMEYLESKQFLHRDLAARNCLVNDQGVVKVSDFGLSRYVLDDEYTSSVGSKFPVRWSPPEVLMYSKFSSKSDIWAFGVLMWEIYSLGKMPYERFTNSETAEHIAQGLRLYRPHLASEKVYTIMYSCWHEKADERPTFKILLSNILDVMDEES
Format: biochemical
Procedure: Inhibition Assay of BTK Kinase Activity:
The enzyme reaction mixture of BTK wild type standard HTRF assay contained 1 nM BTK wild type, 1 μM biotin-TK1 peptide, and 30 μM ATP in a buffer. The enzyme reaction were carried out at room temperature for 60 minutes. […] The plates were incubated at room temperature for 60 minutes and then read in the Envision plate reader.
With C=CC(=O)N1CCCC(n2nc(-c3ccc(Oc4c(F)c(F)cc(F)c4F)cc3F)c3c(N)ncnc32)C1 (centres unmarked) [Compound 11, 1-(3-(4-amino-3-(2-fluoro-4-(2,3,5,6-tetrafluorophenoxy)phenyl)-1H-pyrazolo[3,4-d]pyrimidin-1-yl)piperidin-1-yl)prop-2-en-1-one] the pIC50 was > 8.00. C=CC(=O)N1CC[C@@H](n2nc(-c3ccc(C(=O)c4ccccc4F)cc3F)c3c(N)ncnc32)C1 [Compound 72, 1-((R)-3-(4-amino-3-(2-fluoro-4-(2-fluorobenzoyl)phenyl)-1H-pyrazolo[3,4-d]pyrimidin-1-yl)pyrrolidin-1-yl)prop-2-en-1-one] was tested, and the pIC50 was > 8.00. CCOC(=O)/C=C/CNC(=O)N1CCCC(n2nc(-c3ccc(Oc4c(F)c(F)cc(F)c4F)cc3F)c3c(N)ncnc32)C1 (centres unmarked) [Compound 74, (E)-ethyl 4-(3-(4-amino-3-(2-fluoro-4-(2,3,5,6-tetrafluorophenoxy)phenyl)-1H-pyrazolo[3,4-d]pyrimidin-1-yl)piperidine-1-carboxamido)but-2-enoate] was tested, and the pIC50 was > 8.00. In the case of C=CC(=O)N1CCCC(n2nc(-c3ccc(Oc4cccc(F)c4)cc3F)c3c(N)ncnc32)C1 (centres unmarked) [Compound 18, 1-(3-(4-amino-3-(2-fluoro-4-(3-fluorophenoxy)phenyl)-1H-pyrazolo[3,4-d]pyrimidin-1-yl)piperidin-1-yl)prop-2-en-1-one], the pIC50 was > 8.00. With C=CC(=O)N[C@@H]1CC[C@@H](n2nc(-c3ccc(Oc4cccc(F)c4)cc3F)c3c(N)ncnc32)C1 [Compound 16, N-((1r,3r)-3-(4-amino-3-(2-fluoro-4-(3-fluorophenoxy)phenyl)-1H-pyrazolo[3,4-d]pyrimidin-1-yl)cyclopentyl)acrylamide] the pIC50 was > 8.00.

Same assay, conditions: read-out: BTK IC50
With C=CC(=O)NC1CCC(Cn2nc(-c3ccc(Oc4c(F)c(F)cc(F)c4F)cc3F)c3c(N)ncnc32)C1 (centres unmarked) [Compound 32, N-(3-((4-amino-3-(2-fluoro-4-(2,3,5,6-tetrafluorophenoxy)phenyl)-1H-pyrazolo[3,4-d]pyrimidin-1-yl)methyl)cyclopentyl)acrylamide] the pIC50 was 5.14. For C=CC(=O)N1CC[C@@H](n2nc(-c3ccc(Oc4ccnc(C(=O)NC)c4)cc3F)c3c(N)ncnc32)C1 [Compound 88, 4-(4-(1-((R)-1-acryloylpyrrolidin-3-yl)-4-amino-1H-pyrazolo[3,4-d]pyrimidin-3-yl)-3-fluorophenoxy)-N-methylpicolinamide], the pIC50 was 7.96. For Nc1ncnc2c1c(-c1ccc(Oc3c(F)c(F)cc(F)c3F)cc1F)nn2C1CCCN(C(=O)c2cccnc2)C1 (centres unmarked) [Compound 60, (3-(4-amino-3-(2-fluoro-4-(2,3,5,6-tetrafluorophenoxy)phenyl)-1H-pyrazolo[3,4-d]pyrimidin-1-yl)piperidin-1-yl)(pyridin-3-yl)methanone], the pIC50 was 6.24. With C=C(C(=O)N1CCCC(n2nc(-c3ccc(Oc4c(F)c(F)cc(F)c4F)cc3F)c3c(N)ncnc32)C1)C(F)(F)F (centres unmarked) [Compound 64, 1-(3-(4-amino-3-(2-fluoro-4-(2,3,5,6-tetrafluorophenoxy)phenyl)-1H-pyrazolo[3,4-d]pyrimidin-1-yl)piperidin-1-yl)-2-(trifluoromethyl)prop-2-en-1-one] the pIC50 was 8.22. Molecule Nc1ncnc2c1c(-c1ccc(Oc3c(F)c(F)cc(F)c3F)cc1F)nn2[C@@H]1CCN(C(=O)C(=O)C2CC2)C1 [Compound 78, 1-((R)-3-(4-amino-3-(2-fluoro-4-(2,3,5,6-tetrafluorophenoxy)phenyl)-1H-pyrazolo[3,4-d]pyrimidin-1-yl)pyrrolidin-1-yl)-2-cyclopropylethane-1,2-dione] has a pIC50 of 5.72. Molecule N=C(N)NC(=O)N1CCCC(n2nc(-c3ccc(Oc4c(F)c(F)cc(F)c4F)cc3F)c3c(N)ncnc32)C1 (centres unmarked) [Compound 43, N-[3-[4-amino-3-[2-fluoro-4-(2,3,5,6-trifluorophenoxy)phenyl]-1H-pyrazolo[3,4-d]pyrimidin-1-yl]piperidine-1-carbonyl] formamidine] has a pIC50 of 6.88. C=C(CO)C(=O)N1CCCC(n2nc(-c3ccc(Oc4c(F)c(F)cc(F)c4F)cc3F)c3c(N)ncnc32)C1 (centres unmarked) [Compound 50, 1-(3-(4-amino-3-(2-fluoro-4-(2,3,5,6-tetrafluorophenoxy)phenyl)-1H-pyrazolo[3,4-d]pyrimidin-1-yl)piperidin-1-yl)-2-(hydroxymethyl)prop-2-en-1-one] gave a pIC50 of 7.06. C=CC(=O)N1CCCC(n2nc(-c3ccc(Oc4c(F)c(F)cc(F)c4F)cc3F)c3c(N)ncnc32)C1 (centres unmarked) [Compound 11, 1-(3-(4-amino-3-(2-fluoro-4-(2,3,5,6-tetrafluorophenoxy)phenyl)-1H-pyrazolo[3,4-d]pyrimidin-1-yl)piperidin-1-yl)prop-2-en-1-one] was tested, and the pIC50 was 9.10. Work on C=CC(=O)N1CC[C@@H](n2nc(-c3ccc(C(=O)c4ccccc4F)cc3F)c3c(N)ncnc32)C1 [Compound 72, 1-((R)-3-(4-amino-3-(2-fluoro-4-(2-fluorobenzoyl)phenyl)-1H-pyrazolo[3,4-d]pyrimidin-1-yl)pyrrolidin-1-yl)prop-2-en-1-one] yielded a pIC50 of 9.00. Molecule CCOC(=O)/C=C/CNC(=O)N1CCCC(n2nc(-c3ccc(Oc4c(F)c(F)cc(F)c4F)cc3F)c3c(N)ncnc32)C1 (centres unmarked) [Compound 74, (E)-ethyl 4-(3-(4-amino-3-(2-fluoro-4-(2,3,5,6-tetrafluorophenoxy)phenyl)-1H-pyrazolo[3,4-d]pyrimidin-1-yl)piperidine-1-carboxamido)but-2-enoate] has a pIC50 of 8.52. C=C(C)C(=O)N1CC[C@@H](n2nc(-c3ccc(Oc4c(F)c(F)cc(F)c4F)cc3F)c3c(N)ncnc32)C1 [Compound 105, 1-((R)-3-(4-amino-3-(2-fluoro-4-(2,3,5,6-tetrafluorophenoxy)phenyl)-1H-pyrazolo[3,4-d]pyrimidin-1-yl)pyrrolidin-1-yl)-2-methylprop-2-en-1-one] showed a pIC50 of 6.23. For Nc1ncnc2c1c(-c1ccc(Oc3c(F)c(F)cc(F)c3F)cc1F)nn2[C@@H]1CCN(C(=O)c2ncco2)C1 [Compound 109, ((R)-3-(4-amino-3-(2-fluoro-4-(2,3,5,6-tetrafluorophenoxy)phenyl)-1H-pyrazolo[3,4-d]pyrimidin-1-yl)pyrrolidin-1-yl)(oxazol-2-yl)methanone], the pIC50 was 5.89. N#CC(=O)N1CC[C@@H](n2nc(-c3ccc(Oc4c(F)c(F)cc(F)c4F)cc3F)c3c(N)ncnc32)C1 [Compound 112, 2-((R)-3-(4-amino-3-(2-fluoro-4-(2,3,5,6-tetrafluorophenoxy)phenyl)-1H-pyrazolo[3,4-d]pyrimidin-1-yl)pyrrolidin-1-yl)-2-oxoacetonitrile] gave a pIC50 of 6.97. For C/C(O)=C(/C#N)C(=O)N1CCCC(n2nc(-c3ccc(C(=O)c4cccc(F)c4)cc3F)c3c(N)ncnc32)C1 (centres unmarked) [Compound 7, (E)-2-(3-(4-amino-3-(2-fluoro-4-(3-fluorobenzoyl)phenyl)-1H-pyrazolo[3,4-d]pyrimidin-1-yl)piperidine-1-carbonyl)-3-hydroxybut-2-enenitrile], the pIC50 was 6.14. Molecule Cc1oncc1C(=O)N1CCCC(n2nc(-c3ccc(C(=O)c4cccc(F)c4)cc3F)c3c(N)ncnc32)C1 (centres unmarked) [Compound 6, (3-(4-amino-3-(2-fluoro-4-(3-fluorobenzoyl)phenyl)-1H-pyrazolo[3,4-d]pyrimidin-1-yl)piperidin-1-yl)(5-methylisoxazol-4-yl)methanone] has a pIC50 of 6.86. With C=CC(=O)N[C@H]1CC[C@@H](n2nc(-c3ccc(Oc4c(F)c(F)cc(F)c4F)cc3F)c3c(N)ncnc32)CC1 [Compound 22, N-((1s,4s)-4-(4-amino-3-(2-fluoro-4-(2,3,5,6-tetrafluorophenoxy)phenyl)-1H-pyrazolo[3,4-d]pyrimidin-1-yl)cyclohexyl)acrylamide] the pIC50 was 7.30. C=CC(=O)N1CC[C@@H](n2nc(-c3ccc(Oc4nccc(Cl)n4)cc3F)c3c(N)ncnc32)C1 [Compound 96, 1-((R)-3-(4-amino-3-(4-(4-chloropyrimidin-2-yloxy)-2-fluorophenyl)-1H-pyrazolo[3,4-d]pyrimidin-1-yl)pyrrolidin-1-yl)prop-2-en-1-one] gave a pIC50 of 7.89. Molecule C=C(C#N)CN1CCCC(n2nc(-c3ccc(Oc4c(F)c(F)cc(F)c4F)cc3F)c3c(N)ncnc32)C1 (centres unmarked) [Compound 70, 2-((3-(4-amino-3-(2-fluoro-4-(2,3,5,6-tetrafluorophenoxy)phenyl)-1H-pyrazolo[3,4-d]pyrimidin-1-yl)piperidin-1-yl)methyl)acrylonitrile] has a pIC50 of 7.77. Nc1ncnc2c1c(-c1ccc(Oc3c(F)c(F)cc(F)c3F)cc1F)nn2C1CCCN(C(=O)C(=O)C2CC2)C1 (centres unmarked) [Compound 81, 1-(3-(4-amino-3-(2-fluoro-4-(2,3,5,6-tetrafluorophenoxy)phenyl)-1H-pyrazolo[3,4-d]pyrimidin-1-yl)piperidin-1-yl)-2-cyclopropylethane-1,2-dione] was tested, and the pIC50 was 5.65. With CC(=O)CC(=O)N1CCCC(n2nc(-c3ccc(Oc4c(F)c(F)cc(F)c4F)cc3F)c3c(N)ncnc32)C1 (centres unmarked) [Compound 44, 1-(3-(4-amino-3-(2-fluoro-4-(2,3,5,6-tetrafluorophenoxy)phenyl)-1H-pyrazolo[3,4-d]pyrimidin-1-yl)piperidin-1-yl)butane-1,3-dione] the pIC50 was 6.43. In the case of Nc1ncnc2c1c(-c1ccc(Oc3c(F)c(F)cc(F)c3F)cc1F)nn2[C@@H]1CCN(C(=O)C(Cl)Cl)C1 [Compound 103, 1-((R)-3-(4-amino-3-(2-fluoro-4-(2,3,5,6-tetrafluorophenoxy)phenyl)-1H-pyrazolo[3,4-d]pyrimidin-1-yl)pyrrolidin-1-yl)-2,2-dichloroethanone], the pIC50 was 6.26. With CC(C)C(=O)C(=O)N1CC[C@@H](n2nc(-c3ccc(Oc4c(F)c(F)cc(F)c4F)cc3F)c3c(N)ncnc32)C1 [Compound 79, 1-((R)-3-(4-amino-3-(2-fluoro-4-(2,3,5,6-tetrafluorophenoxy)phenyl)-1H-pyrazolo[3,4-d]pyrimidin-1-yl)pyrrolidin-1-yl)-3-methylbutane-1,2-dione] the pIC50 was 5.78. For C=CC(=O)N1CCCC(n2nc(-c3ccc(Oc4cccc(F)c4)cc3F)c3c(N)ncnc32)C1 (centres unmarked) [Compound 18, 1-(3-(4-amino-3-(2-fluoro-4-(3-fluorophenoxy)phenyl)-1H-pyrazolo[3,4-d]pyrimidin-1-yl)piperidin-1-yl)prop-2-en-1-one], the pIC50 was 8.52. Molecule C=CC(=O)N1CCCC(n2nc(-c3ccc(Oc4ccccc4NS(C)(=O)=O)cc3F)c3c(N)ncnc32)C1 (centres unmarked) [Compound 19, N-(2-(4-(1-(1-acryloylpiperidin-3-yl)-4-amino-1H-pyrazolo[3,4-d]pyrimidin-3-yl)-3-fluorophenoxy)phenyl)methanesulfonamide] has a pIC50 of 7.17. Work on C=CC(=O)N[C@@H]1CC[C@@H](n2nc(-c3ccc(Oc4cccc(F)c4)cc3F)c3c(N)ncnc32)C1 [Compound 16, N-((1r,3r)-3-(4-amino-3-(2-fluoro-4-(3-fluorophenoxy)phenyl)-1H-pyrazolo[3,4-d]pyrimidin-1-yl)cyclopentyl)acrylamide] yielded a pIC50 of 8.52. In the case of N#CCCN1CC[C@@H](n2nc(-c3ccc(Oc4c(F)c(F)cc(F)c4F)cc3F)c3c(N)ncnc32)C1 [Compound 114, 3-((R)-3-(4-amino-3-(2-fluoro-4-(2,3,5,6-tetrafluorophenoxy)phenyl)-1H-pyrazolo[3,4-d]pyrimidin-1-yl)pyrrolidin-1-yl)propanenitrile], the pIC50 was 7.30. Molecule C=C(CN1CCCC(n2nc(-c3ccc(Oc4c(F)c(F)cc(F)c4F)cc3F)c3c(N)ncnc32)C1)C(=O)OCC (centres unmarked) [Compound 68, ethyl 2-((3-(4-amino-3-(2-fluoro-4-(2,3,5,6-tetrafluorophenoxy)phenyl)-1H-pyrazolo[3,4-d]pyrimidin-1-yl)piperidin-1-yl)methyl)acrylate] has a pIC50 of 6.55.
